Experimental data published in patent US8350085B2, “Cocrystallization” (New Form Pharmaceuticals Inc., priority 2003, dated 2013).
Like-named read-outs stand apart in the source and are kept apart here.

[1] = compared with crystals of fluoxetine HCl

For `CNCCC(Oc1ccc(C(F)(F)F)cc1)c1ccccc1.Cl.O=C(O)c1ccccc1` (stereo not drawn) [fluoxetine HCl:benzoic acid, fluoxetine HCl:benzoic acid (1:1)], the dissolution rate (Example 1 cocrystal) was “relatively slow” and the dissolution rate [1] was “lower dissolution rate”.
For `CNCCC(Oc1ccc(C(F)(F)F)cc1)c1ccccc1.Cl.O=C(O)CCC(=O)O` (stereo not drawn) [fluoxetine HCl:succinic acid, fluoxetine HCl:succinic acid (2:1)], the dissolution rate [1] was “faster dissolution rate”.
